Assay results: article PMC12055641, “The Study of Antistaphylococcal Potential of Omiganan and Retro-Omiganan Under Flow Conditions” (Probiotics and Antimicrobial Proteins, 2024)
In brackets after ≈: the same amount, converted by molar mass. Where two headings read alike, the source gives them in different places. No end group written: not given here.

Tests used:
[1] = test system: S. aureus clinical strain 051N (MRSA); set-up: method as in earlier work; conditions: clinical isolate 051N (MRSA), nasal swab; cited from earlier work
[2] = test system: S. aureus clinical strain 015N (MRSA); set-up: method as in earlier work; conditions: clinical isolate 015N (MRSA), nasal swab; cited from earlier work
[3] = test system: S. aureus clinical strain 031S; set-up: method as in earlier work; conditions: clinical isolate 031S, skin; cited from earlier work
[4] = test system: S. aureus clinical strain 060S; set-up: method as in earlier work; conditions: clinical isolate 060S, skin; cited from earlier work
[5] = test system: S. aureus clinical strain 043SC (MRSA); set-up: method as in earlier work; conditions: clinical isolate 043SC (MRSA), skin of patient with furuncle folliculitis; cited from earlier work
[6] = test system: S. aureus clinical strain 009S; set-up: method as in earlier work; conditions: clinical isolate 009S, skin; cited from earlier work
[7] = test system: S. aureus clinical strain 004N (MRSA); set-up: method as in earlier work; conditions: clinical isolate 004N (MRSA), nasal swab; cited from earlier work
[8] = test system: S. aureus clinical strain 005S; set-up: method as in earlier work; conditions: clinical isolate 005S, skin; cited from earlier work
[9] = test system: S. aureus clinical strain 030N; set-up: method as in earlier work; conditions: clinical isolate 030N, nasal swab; cited from earlier work
[10] = test system: S. aureus ATCC 33591 (MRSA); assay: microbe, parasite or virus in culture; conditions: Staphylococcus aureus, ATCC33591|MRSA
Text: (§1) Clinical S. aureus strains were collected from patients with atopic dermatitis during their visits to the Outpatient Clinic and hospitalization in the Department of Dermatology, Venereology and Allergology at Medical University of Gdańsk (following the approval from the ethics committee, Approval Number NKBBN/242–477/2014). Reference strains of S. aureus ATCC 25923, S. aureus ATCC 33591, S. aureus ATCC 9144, and S. aureus ATCC 12598 were obtained from the American Type Culture Collection. All the strains were stored at − 80 °C in Roti®-Store cryo vials (Carl Roth GmbH, Karlsruhe, Germany) and before the tests were transferred into fresh Mueller–Hinton Medium (BioMaxima, Lublin, Poland) and incubated for 24 h at 37 °C. Subsequently, each bacterial inoculum was seeded on Mueller–Hinton agar plates (BioMaxima) and incubated again for 24 h. The cultures prepared in this way were used in further antimicrobial assays. Minimum inhibitory concentrations (MICs) were determined according to the Clinical and Laboratory Standards Institute recommendations. […] The experiments were conducted on 96-well microtiter plates, with a final volume of 100 μL. Additionally, in the case of daptomycin, the medium was supplemented with Ca^2+ (50 mg/L). Cell densities were adjusted spectrophotometrically (Multiskan™ GO Microplate Spectrophotometer, Thermo Scientific) at 600 nm. The MICs were taken as the lowest drug concentration at which a visible growth of the microorganisms was inhibited. Minimum biofilm eliminating concentrations (MBECs) were determined on 96-well flat-bottomed microtiter polystyrene plates with resazurin (7-hydroxy-3H-phenoxazin-3-one 10-oxide sodium salt) as a cell viability reagent. To do this, the plates were filled with 100 μL of the initial inoculums of bacteria (0.5 × 10^7 CFU/mL) in the Mueller–Hinton broth and incubated for 24 h at 37 °C. […] After 24 h of incubation, 20 μL of resazurin (4 mg/mL) was added to each well and the MBEC values were read. Minimum biofilm inhibitory concentrations (MBICs) were also determined on 96-well flat-bottomed microtiter polystyrene plates as described previously. To do this, 50 μL of the compounds in the concentration range, diluted MHB, were prepared. Subsequently, the 50 μL of the staphylococcal inoculums were added to reach the same density of bacteria as that in the MBEC assay. After 24 h of incubation at 37 °C, the wells were rinsed three times with PBS and the fresh medium (100 μL) with resazurin (0.6 mg/mL) was added. Then, after 1 h of incubation, MBICs were read. […] All experiments were conducted in triplicate.
(§2) Formation of the biofilm inside the PDMS flow chambers was performed using three peristaltic pumps working simultaneously (LP-pump, Kamush, Lipopharm, Poland) and sterile Tygon® 3350 silicone hoses (2.4 × 0.8 × 0.8 mm) with a length of 30 and 50 cm for inlet and outlet, respectively. Bacterial suspensions were prepared (0.5 × 10^7 CFU/mL) in sterile 50-mL test tubes, which were placed in a heating block at 37 °C. Before experiments, all channels were assessed for tightness and sterilized using a 70% 2-propanol solution (10 min, flow rate 1 mL/min) and rinsed with sterile PBS solution (10 min, flow 0.1 mL/min). The formation of biofilm inside the channels was divided into three stages: (1) adhesion—at this stage S. aureus suspensions were passed through the channels for 4 h at a flow rate of 0.1 mL/min; (2) rinsing—the previously used hoses were replaced with new sterile ones, and the channels were rinsed with sterile PBS solution for 10 min at a flow rate of 0.1 mL/min; (3) biofilm growth—after flushing the channels, the silicone hoses were placed in tubes with MHB medium, which was passed through the channels for 24 h at a flow rate of 0.1 mL/min. All experiments included growth and sterility controls.
(§3) This assay was conducted also on the S. aureus ATCC 25923 and S. aureus 33,591 (MRSA) strains.

[11] = test system: S. aureus ATCC 25923; assay: microbe, parasite or virus in culture; conditions: Staphylococcus aureus
Text: as §1, §2, §3

[12] = test system: human keratinocytes (HaCaT); type: cell-based; conditions: 24 h
Description: To evaluate the cytotoxicity of the peptides (IC50), the classic MTT assay on 96-well plates was performed for human keratinocytes (HaCaT) which were acquired from the ATCC. The assay utilizes colorimetric determination of the cell metabolic activity, and the color intensity reflects the number of live cells that can be measured spectrophotometrically. […] DMSO was added to the control cells at a final concentration of 1.0% (v/v), which was related to the maximum concentration of the solvent compounds used in the experiment. After 24 h of incubation at 37 °C (humidified 5% CO2 incubator) with the peptides, a medium containing 1 mg/mL of MTT was added to the wells up to a final concentration of 0.5 mg/mL. Subsequently, the plates were incubated at 37 °C for 4 h. Then, the medium was aspirated, and the formazan product was solubilized with DMSO. The background absorbance at 630 nm was subtracted from that at 570 nm for each well (Epoch, BioTek Instruments, USA). Six replicates were conducted for each concentration. All experiments were repeated at least twice and the resulting IC50 values were calculated with GraFit 7 software (v. 7.0, Erithacus, Berkley, CA, USA).

[13] = test system: S. aureus ATCC 33591 (MRSA) biofilm; conditions: ATCC 33591, 24 h
Text: as §1

[14] = test system: biofilm of reference and clinical strains of staphylococci (S. aureus); conditions: 24 h
Text: as §1

[15] = test system: S. aureus clinical strain 015N (MRSA); conditions: 24 h
Text: as §1

[16] = test system: S. aureus clinical strain 043SC (MRSA) biofilm; conditions: clinical strain 043SC biofilm, 24 h
Text: as §1

[17] = test system: S. aureus clinical strain 043SC (MRSA); conditions: 24 h
Text: as §1

[18] = test system: S. aureus clinical strain 051N (MRSA); conditions: 24 h
Text: as §1

[19] = test system: S. aureus clinical strain 051N (MRSA) biofilm; conditions: clinical strain 051N biofilm, 24 h
Text: as §1

[20] = test system: reference and clinical strains of staphylococci (S. aureus); conditions: 24 h
Text: as §1

[21] = test system: S. aureus ATCC 33591 (MRSA); conditions: ATCC 33591, 24 h
Text: as §1

[22] = test system: S. aureus clinical strain 015N (MRSA) biofilm; conditions: clinical strain 015N biofilm, 24 h
Text: as §1

[23] = test system: S. aureus clinical strain 004N (MRSA) biofilm; conditions: clinical strain 004N biofilm, 24 h
Text: as §1

[24] = test system: S. aureus clinical strain 004N (MRSA); conditions: 24 h
Text: as §1

CN[C@H](CC(C)C)C(=O)N[C@H]1C(=O)N[C@@H](CC(N)=O)C(=O)N[C@H]2C(=O)N[C@H]3C(=O)N[C@H](C(=O)N[C@H](C(=O)O)c4cc(O)cc(O)c4-c4cc3ccc4O)[C@H](O)c3ccc(c(Cl)c3)Oc3cc2cc(c3O[C@@H]2O[C@H](CO)[C@@H](O)[C@H](O)[C@H]2O[C@H]2C[C@](C)(N)[C@H](O)[C@H](C)O2)Oc2ccc(cc2Cl)[C@H]1O [Vancomycin]
Antimicrobial susceptibility (MIC) [1]: 0.5 µg/mL
Antimicrobial susceptibility (MIC) [2]: 1 µg/mL
Antimicrobial susceptibility (MIC) [3]: 0.25 µg/mL
Antimicrobial susceptibility (MIC) [4]: 0.5 µg/mL
Antimicrobial susceptibility (MIC) [5]: 0.5 µg/mL
Antimicrobial susceptibility (MIC) [6]: 0.25 µg/mL
Antimicrobial susceptibility (MIC) [7]: 0.5 µg/mL
Antimicrobial susceptibility (MIC) [8]: 0.125 µg/mL
Antimicrobial susceptibility (MIC) [9]: 2 µg/mL
MIC ([10]; 0 h, S. aureus ATCC 33591 (MRSA), time 0 h (baseline, before peptide exposure)): 1 µg/mL (≈ 0.69 µM)
MIC ([10]; 24 h, S. aureus ATCC 33591 (MRSA) biofilm treated under flow with Omiganan (half MBEC) for 24 h): 1 µg/mL (≈ 0.69 µM)
MIC ([10]; 24 h, S. aureus ATCC 33591 (MRSA) biofilm treated under flow with Retro-Omiganan (half MBEC) for 24 h): 1 µg/mL (≈ 0.69 µM)
MIC ([10]; 48 h, S. aureus ATCC 33591 (MRSA) biofilm treated under flow with Omiganan (half MBEC) for 48 h): 1 µg/mL (≈ 0.69 µM)
MIC ([10]; 48 h, S. aureus ATCC 33591 (MRSA) biofilm treated under flow with Retro-Omiganan (half MBEC) for 48 h): 1 µg/mL (≈ 0.69 µM)
MIC ([10]; 72 h, S. aureus ATCC 33591 (MRSA) biofilm treated under flow with Omiganan (half MBEC) for 72 h): 1 µg/mL (≈ 0.69 µM)
MIC ([10]; 72 h, S. aureus ATCC 33591 (MRSA) biofilm treated under flow with Retro-Omiganan (half MBEC) for 72 h): 1 µg/mL (≈ 0.69 µM)
MIC ([11]; ATCC25923, 0 h, S. aureus 25923, time 0 h (baseline, before peptide exposure)): 1 µg/mL (≈ 0.69 µM)
MIC ([11]; ATCC25923, 24 h, S. aureus 25923 biofilm treated under flow with Omiganan (half MBEC) for 24 h): 1 µg/mL (≈ 0.69 µM)
MIC ([11]; ATCC25923, 24 h, S. aureus 25923 biofilm treated under flow with Retro-Omiganan (half MBEC) for 24 h): 1 µg/mL (≈ 0.69 µM)
MIC ([11]; ATCC25923, 48 h, S. aureus 25923 biofilm treated under flow with Omiganan (half MBEC) for 48 h): 1 µg/mL (≈ 0.69 µM)
MIC ([11]; ATCC25923, 48 h, S. aureus 25923 biofilm treated under flow with Retro-Omiganan (half MBEC) for 48 h): 1 µg/mL (≈ 0.69 µM)
MIC ([11]; ATCC25923, 72 h, S. aureus 25923 biofilm treated under flow with Omiganan (half MBEC) for 72 h): 1 µg/mL (≈ 0.69 µM)
MIC ([11]; ATCC25923, 72 h, S. aureus 25923 biofilm treated under flow with Retro-Omiganan (half MBEC) for 72 h): 1 µg/mL (≈ 0.69 µM)

KRRWPWWPWRLI-NH2 [Retro-omiganan AcO^−]
IC50 [12]: 23.66 µg/mL
MBEC [13]: 32 µg/mL
MBIC [13]: 32 µg/mL
mean MBEC (initial values) [14]: 32.00 µg/mL
MIC [15]: 16 µg/mL
MBEC [16]: 32 µg/mL
MBIC [16]: 16 µg/mL
MIC [17]: 16 µg/mL
MIC [18]: 16 µg/mL
MBEC [19]: 64 µg/mL
MBIC [19]: 32 µg/mL
mean MIC (initial values) [20]: 10.00 µg/mL
MIC [21]: 16 µg/mL
MBEC [22]: 32 µg/mL
MBIC [22]: 16 µg/mL
MBEC [23]: 32 µg/mL
MBIC [23]: 16 µg/mL
MIC [24]: 16 µg/mL
